# Source: US20230129438A1, “IMMUNOMODULATING IMINE-OXAZOLINE AZALIDES” (Zoetis Services LLC, priority 2020, published 2023)
# Legend:
# TNF-α = assay: Bovine whole blood assay, LPS-induced TNF-α; format: cell-based; conditions: LPS 1 μg/mL
# Procedure: (§1) (protected from light) for 30 minutes.
# IL-1β = assay: Bovine whole blood assay, IL-1β; format: cell-based; conditions: drug concentration giving overstimulation of IL-1β over LPS (cellular toxicity signal)
# Procedure: as §1
# P. multocida 46572 = assay: In vivo mouse lung infection challenge model (murine efficacy model); conditions: for % Survival: 20 mg/kg subcutaneous, CD-1 mice, intranasal challenge, to Day 10, approximate (~%), harmonized relative to vehicle and M9
Structure (SMILES),IC50 (TNF-α),IL-Iβ OS of LPS (IL-1β),% Survival (P. multocida 46572),"clinical efficacy, in words (P. multocida 46572; P. multocida infection in mice)"
"CCCNC[C@]1(O)[C@H](C)O[C@@H](O[C@H]2[C@H](C)[C@@H](O[C@@H]3O[C@H](C)C[C@H]4[C@H]3OC(=Nc3ccccc3)N4C)[C@](C)(O)C[C@@H](C)CN[C@H](C)[C@@H](O)[C@](C)(O)[C@@H](CC)OC(=O)[C@@H]2C)C[C@@]1(C)OC (mixture of isomers) [Example A-6, (E/Z)-(2R,3S,4R,5R,8R,10R,11R,12S,13S,14R)-11-(((3aR,4S,6R,7aS)-1,6-dimethyl-2-(phenylimino)hexahydro-2H-pyrano[4,3-d]oxazol-4-yl)oxy)-2-ethyl-3,4,10-trihydroxy-13-(((2R,4R,5S,6S)-5-hydroxy-4-methoxy-4,6-dimethyl-5-((propylamino)methyl)tetrahydro-2H-pyran-2-yl)oxy)-3,5,8,10,12,14-hexamethyl-1-oxa-6-azacyclopentadecan-15-one]",< 5 µM,13 µM,54%,–
"CC[C@H]1OC(=O)[C@H](C)[C@@H](O[C@H]2C[C@@](C)(OC)[C@](O)(CN3CCOCC3)[C@H](C)O2)[C@H](C)[C@@H](O[C@@H]2O[C@H](C)C[C@H]3[C@H]2OC(=Nc2ccc(OC)cc2)N3C)[C@](C)(O)C[C@@H](C)CN[C@H](C)[C@@H](O)[C@]1(C)O (mixture of isomers) [Example B-4, (E/Z)-(2R,3S,4R,5R,8R,10R,11R,12S,13S,14R)-2-ethyl-3,4,10-trihydroxy-13-(((2R,4R,5S,6S)-5-hydroxy-4-methoxy-4,6-dimethyl-5-(morpholinomethyl)tetrahydro-2H-pyran-2-yl)oxy)-11-(((3aR,4S,6R,7aS)-2-((4-methoxyphenyl)imino)-1,6-dimethylhexahydro-2H-pyrano[4,3-d]oxazol-4-yl)oxy)-3,5,8,10,12,14-hexamethyl-1-oxa-6-azacyclopentadecan-15-one]",< 5 µM,13 µM,37%,clinically efficacious
"CC[C@H]1OC(=O)[C@H](C)[C@@H](O[C@H]2C[C@@](C)(OC)[C@](O)(CN3CCN(C)CC3)[C@H](C)O2)[C@H](C)[C@@H](O[C@@H]2O[C@H](C)C[C@H]3[C@H]2OC(=Nc2ccccc2)N3C)[C@](C)(O)C[C@@H](C)CN[C@H](C)[C@@H](O)[C@]1(C)O (mixture of isomers) [Example B-1, (E/Z)-(2R,3S,4R,5R,8R,10R,11R,12S,13S,14R)-11-(((3aR,4S,6R,7aS)-1,6-dimethyl-2-(phenylimino)hexahydro-2H-pyrano[4,3-d]oxazol-4-yl)oxy)-2-ethyl-3,4,10-trihydroxy-13-(((2R,4R,5S,6S)-5-hydroxy-4-methoxy-4,6-dimethyl-5-((4-methylpiperazin-1-yl)methyl)tetrahydro-2H-pyran-2-yl)oxy)-3,5,8,10,12,14-hexamethyl-1-oxa-6-azacyclopentadecan-15-one]",8 µM,13 µM,43%,–
"CCNC[C@]1(O)[C@H](C)O[C@@H](O[C@H]2[C@H](C)[C@@H](O[C@@H]3O[C@H](C)C[C@H]4[C@H]3OC(=Nc3ccccc3)N4C)[C@](C)(O)C[C@@H](C)CN[C@H](C)[C@@H](O)[C@](C)(O)[C@@H](CC)OC(=O)[C@@H]2C)C[C@@]1(C)OC (mixture of isomers) [Example A-3, (E/Z)-(2R,3S,4R,5R,8R,10R,11R,12S,13S,14R)-11-(((3aR,4S,6R,7aS)-1,6-dimethyl-2-(phenylimino)hexahydro-2H-pyrano[4,3-d]oxazol-4-yl)oxy)-2-ethyl-13-(((2R,4R,5S,6S)-5-((ethylamino)methyl)-5-hydroxy-4-methoxy-4,6-dimethyltetrahydro-2H-pyran-2-yl)oxy)-3,4,10-trihydroxy-3,5,8,10,12,14-hexamethyl-1-oxa-6-azacyclopentadecan-15-one]",20 µM,5 µM,–,–
